Measurements published in US20230017786A1, “DEXTR[…] A DISEASE-MODIFYING TREATMENT FOR NEUROPSYCHIATRIC DISORDERS AND DISEASES” (priority 2020, published 2023).
Structures can show the parent of a compound that is named as a salt.

Columns and labels:
rat brain = conditions: 75 mg/kg; Hashimoto et al., 1996; cited from earlier work
[1] = target: T1, human NMDA receptor GluN1-GluN2A (Homo sapiens, UniProt Q05586+Q12879); assay: FLIPR calcium assay, test item effect on L-glutamate CRC, GluN1-GluN2A-CHO; assay type: cell-based
T1 construct: expressed in transfected cells; host or cells: CHO
Experimental: (§1) FLIPR determination of intracellular calcium level was used as a read-out for NMDAR activation.
(§2) 400× compound plate was stored at −20° C. until FLIPR experimental day.
(§3) 4× compound plate was generated from 400× compound plate by addition of up to 30 μl/well of compound buffer on FLIPR experimental day.
(§4) A FLIPR system was used to monitor intracellular calcium level in NMDAR cell lines, pre-loaded for 1 hour with Fluo-4, and then washed with assay buffer.
(§5) Y=Bottom+(Top−Bottom)/(1+10^((LogEC50−Log[A])*HillSlope))

[2] = system: diheteromeric human recombinant NMDAR containing GluN1 plus GluN2A, GluN2B, GluN2C or GluN2D; assay: FLIPR calcium assay, statements for all four NMDAR subtypes together; assay type: cell-based; conditions: 6 test item concentrations
Description: An operational equation for allosteric modulators (Leach K, Sexton P M and Christopoulos A, Allosteric GPCR modulators: taking advantage of permissive receptor pharmacology, Trends Pharmacol. Sci. 28: 382-389, 2007; Kenakin T P, Overview of receptor interaction of agonists and antagonists, Curr. Protoc. Pharmacol. Chapter 4: Unit 4.1, 2008, Kenakin T P, Biased signalling and allosteric machines: new vistas and challenges for drug discovery, Br. J. Pharmacol. 165: 1659-1669, 2012) was created in Prism 8 (GraphPad) software to estimate KB and a parameters for every test item, with the assumption that, as a pore blocker, every test item would be able to produce a compete blockade of agonist response, at sufficiently high concentration: […]

[3] = target: T2, human NMDA receptor GluN1-GluN2D (Homo sapiens, UniProt O15399+Q05586); assay: FLIPR calcium assay, test item effect on L-glutamate CRC, GluN1-GluN2D-CHO; assay type: cell-based
T2 construct: expressed in transfected cells; host or cells: CHO
Experimental: as §1, §2, §3, §4, §5

[4] = target: T3, human NMDA receptor GluN1-GluN2B (Homo sapiens, UniProt Q05586+Q13224); assay: cell-based; assay type: cell-based
T3 construct: expressed in transfected cells; host or cells: CHO
Experimental: as §1, §2, §3, §4, §5

[5] = target: T4, human NMDA receptor GluN1-GluN2C (Homo sapiens, UniProt Q05586+Q14957); assay: FLIPR calcium assay, test item effect on L-glutamate CRC, GluN1-GluN2C-CHO; assay type: cell-based
T4 construct: expressed in transfected cells; host or cells: CHO
Experimental: as §1, §2, §3, §4, §5

[6] = target: T5, recombinant human NMDAR GluN1 plus GluN2A (Homo sapiens, UniProt Q05586+Q12879); assay: FLIPR calcium assay, gentamicin as PAM (Example 5 Part I), GluN2A cell line; assay type: cell-based; conditions: 10 μM test item; dextromethadone in presence and absence of 10 μM gentamicin
T5 construct: expressed in transfected cells; host or cells: CHO
Description: (§6) A FLIPR calcium assay was used to profile gentamicin using stable cell lines expressing diheteromeric recombinant human NMDARs, containing GluN1 plus one amongst GluN2A, GluN2B, GluN2C or GluN2D subunit.

[7] = target: T6, recombinant human NMDAR GluN1 plus GluN2D (Homo sapiens, UniProt O15399+Q05586); assay: FLIPR calcium assay, gentamicin as PAM (Example 5 Part I), GluN2D cell line; assay type: cell-based; conditions: 10 μM test item; dextromethadone in presence and absence of 10 μM gentamicin
T6 construct: expressed in transfected cells; host or cells: CHO
Description: as §6

[8] = target: T3, human NMDA receptor GluN1-GluN2B; assay: FLIPR calcium assay, quinolinic acid, gentamicin, dextromethadone (Example 5 Part II), GluN1-GluN2B-CHO; assay type: cell-based
Experimental: (§7) Quinolinic acid or gentamicin CRCs were also produced, in presence of 10 μM glycine.
(§8) Test items were evaluated in FLIPR for their ability to modulate, alone or in combination, calcium entry in presence of […], using four CHO cell lines expressing diheteromeric human NMDA receptor (NMDAR): GluN-/GluN2A-CHO, GluN1-GluN2B-CHO, GluN1-GluN2C-CHO, GluN1-GluN2D-CHO.
(§9) The first aim of the study was to evaluate quinolinic acid or gentamicin CRC effect in the presence of 10 μM glycine.
as §1
(§10) 400× compound plate was stored at −20° C. till FLIPR experimental day.
(§11) A 4× compound plate was generated from 400× compound plate by addition of up to 30 μl/well of compound buffer on FLIPR experimental day.
as §4
(§12) Y=Bottom+(Top−Bottom)/(1+10^((LogEC50−X)*HillSlope))
(§13) Test item CRC data were plotted by Prism 8 GraphPad software, in the different experimental conditions. And, column analysis, performed by Prism 8 GraphPad software, was one way ANOVA followed by Tukey's multiple comparisons test, with a single pooled variance.

[9] = target: T2, human NMDA receptor GluN1-GluN2D; assay: FLIPR calcium assay, quinolinic acid, gentamicin, dextromethadone (Example 5 Part II), GluN1-GluN2D-CHO; assay type: cell-based
Experimental: as §7, §8, §9, §1, §10, §11, §4, §12, §13

[10] = target: T7, recombinant human NMDAR GluN1 plus GluN2B (Homo sapiens, UniProt Q05586+Q13224); assay: FLIPR calcium assay, gentamicin as PAM (Example 5 Part I), GluN2B cell line; assay type: cell-based; conditions: 10 μM test item; dextromethadone in presence and absence of 10 μM gentamicin
T7 construct: expressed in transfected cells; host or cells: CHO
Description: as §6

[11] = target: T8, recombinant human NMDAR GluN1 plus GluN2C (Homo sapiens, UniProt Q05586+Q14957); assay: FLIPR calcium assay, gentamicin as PAM (Example 5 Part I), GluN2C cell line; assay type: cell-based; conditions: 10 μM test item; dextromethadone in presence and absence of 10 μM gentamicin
T8 construct: expressed in transfected cells; host or cells: CHO
Description: as §6

[12] = target: T4, human NMDA receptor GluN1-GluN2C; assay: FLIPR calcium assay, quinolinic acid, gentamicin, dextromethadone (Example 5 Part II), GluN1-GluN2C-CHO; assay type: cell-based
Experimental: as §7, §8, §9, §1, §10, §11, §4, §12, §13

[13] = target: T1, human NMDA receptor GluN1-GluN2A; assay: FLIPR calcium assay, quinolinic acid, gentamicin, dextromethadone (Example 5 Part II), GluN1-GluN2A-CHO; assay type: cell-based; parameters: calcium response (mean±SEM): unit not given here
Experimental: as §7, §8, §9, §1, §10, §11, §4, §12, §13

[14] = highest affinity for a NMDAR subtype = 100%
[15] = operational analysis for allosteric modulators
[16] = operational analysis for allosteric modulators, read-out: KB (M), estimated test item equilibrium dissociation constant
[17] = CRC in presence of 10 μM glycine
[18] = CRC in presence of 10 μM glycine, no glutamate
[19] = gentamicin CRC, max 100, 10 μM glycine

T7 sequence (Q13224 27-1484, other chains not shown): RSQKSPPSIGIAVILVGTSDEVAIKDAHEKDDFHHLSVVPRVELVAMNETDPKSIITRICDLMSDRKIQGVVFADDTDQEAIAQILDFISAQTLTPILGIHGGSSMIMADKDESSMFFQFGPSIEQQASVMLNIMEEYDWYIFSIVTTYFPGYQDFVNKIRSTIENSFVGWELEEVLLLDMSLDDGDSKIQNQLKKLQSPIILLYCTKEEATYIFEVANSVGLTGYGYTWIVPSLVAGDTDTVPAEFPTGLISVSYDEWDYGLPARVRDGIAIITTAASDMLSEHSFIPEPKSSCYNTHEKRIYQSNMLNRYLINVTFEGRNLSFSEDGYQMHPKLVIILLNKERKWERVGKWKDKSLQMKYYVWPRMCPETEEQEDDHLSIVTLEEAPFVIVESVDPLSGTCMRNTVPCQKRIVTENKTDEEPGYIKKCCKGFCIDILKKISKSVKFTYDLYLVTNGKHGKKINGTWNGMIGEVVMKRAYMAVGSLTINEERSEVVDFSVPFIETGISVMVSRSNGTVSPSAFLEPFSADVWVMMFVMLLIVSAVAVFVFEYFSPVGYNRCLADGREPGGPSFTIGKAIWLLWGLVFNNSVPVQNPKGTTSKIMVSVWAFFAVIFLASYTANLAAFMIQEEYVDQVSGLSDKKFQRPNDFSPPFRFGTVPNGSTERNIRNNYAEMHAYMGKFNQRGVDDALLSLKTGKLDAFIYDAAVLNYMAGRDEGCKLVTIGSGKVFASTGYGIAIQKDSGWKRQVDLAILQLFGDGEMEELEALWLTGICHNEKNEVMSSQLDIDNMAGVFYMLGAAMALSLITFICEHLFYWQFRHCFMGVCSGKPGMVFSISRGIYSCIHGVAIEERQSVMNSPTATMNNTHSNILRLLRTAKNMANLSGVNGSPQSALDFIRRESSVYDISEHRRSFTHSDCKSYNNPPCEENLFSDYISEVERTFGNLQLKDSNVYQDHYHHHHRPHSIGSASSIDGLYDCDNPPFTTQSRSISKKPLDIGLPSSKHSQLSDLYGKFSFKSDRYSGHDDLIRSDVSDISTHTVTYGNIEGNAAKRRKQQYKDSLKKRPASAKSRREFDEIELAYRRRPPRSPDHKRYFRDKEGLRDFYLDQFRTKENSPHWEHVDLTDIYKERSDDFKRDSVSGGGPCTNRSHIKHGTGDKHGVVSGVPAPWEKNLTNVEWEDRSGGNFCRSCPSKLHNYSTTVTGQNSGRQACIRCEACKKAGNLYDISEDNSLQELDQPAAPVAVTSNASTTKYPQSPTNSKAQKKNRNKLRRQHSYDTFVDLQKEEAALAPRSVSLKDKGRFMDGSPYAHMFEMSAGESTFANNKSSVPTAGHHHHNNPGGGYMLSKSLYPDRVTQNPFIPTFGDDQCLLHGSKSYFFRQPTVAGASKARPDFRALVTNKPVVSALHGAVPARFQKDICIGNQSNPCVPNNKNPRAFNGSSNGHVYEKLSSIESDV
T3 sequence (Q13224 27-1484, other chains not shown): as above
T4 sequence (Q14957 20-1233, other chains not shown): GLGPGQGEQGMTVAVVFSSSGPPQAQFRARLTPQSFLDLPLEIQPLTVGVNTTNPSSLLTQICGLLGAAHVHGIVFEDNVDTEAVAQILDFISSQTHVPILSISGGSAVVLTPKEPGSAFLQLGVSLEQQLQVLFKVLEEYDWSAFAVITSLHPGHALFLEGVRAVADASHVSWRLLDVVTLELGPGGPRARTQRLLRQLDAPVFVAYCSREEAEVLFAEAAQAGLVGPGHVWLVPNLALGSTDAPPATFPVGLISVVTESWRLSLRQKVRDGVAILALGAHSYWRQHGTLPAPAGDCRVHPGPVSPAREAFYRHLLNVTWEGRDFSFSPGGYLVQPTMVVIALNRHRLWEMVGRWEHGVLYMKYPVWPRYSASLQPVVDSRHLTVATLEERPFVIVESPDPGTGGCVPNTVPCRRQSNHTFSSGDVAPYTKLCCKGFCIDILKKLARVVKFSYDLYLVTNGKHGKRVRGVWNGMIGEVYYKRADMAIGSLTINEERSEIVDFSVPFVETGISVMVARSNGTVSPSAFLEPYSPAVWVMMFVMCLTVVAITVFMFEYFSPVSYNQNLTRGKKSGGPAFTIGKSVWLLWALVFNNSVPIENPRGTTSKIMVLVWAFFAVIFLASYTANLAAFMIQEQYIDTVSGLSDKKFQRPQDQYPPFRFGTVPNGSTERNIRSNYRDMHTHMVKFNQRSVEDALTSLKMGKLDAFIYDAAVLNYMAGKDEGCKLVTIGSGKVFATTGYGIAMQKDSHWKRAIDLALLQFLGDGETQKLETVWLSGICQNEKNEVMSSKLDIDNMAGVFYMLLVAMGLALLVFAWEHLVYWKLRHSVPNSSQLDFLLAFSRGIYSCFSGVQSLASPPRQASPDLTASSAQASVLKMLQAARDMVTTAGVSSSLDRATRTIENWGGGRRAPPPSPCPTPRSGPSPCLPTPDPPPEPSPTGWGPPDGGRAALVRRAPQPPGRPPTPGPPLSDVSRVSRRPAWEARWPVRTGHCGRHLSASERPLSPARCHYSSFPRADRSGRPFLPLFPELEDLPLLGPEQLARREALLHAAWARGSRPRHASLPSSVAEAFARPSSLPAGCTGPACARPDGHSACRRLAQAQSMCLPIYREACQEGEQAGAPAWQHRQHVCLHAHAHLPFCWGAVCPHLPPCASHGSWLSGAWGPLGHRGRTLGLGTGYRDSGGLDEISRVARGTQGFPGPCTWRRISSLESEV
T8 sequence (Q14957 20-1233, other chains not shown): as above

COc1ccc2c(c1)[C@]13CCCC[C@@H]1[C@H](C2)N(C)CC3 [Dextromethorphan, dextromethorphan hydrobromide monohydrate]
vacuolization in rats' brains (rat brain): cause vacuolization | % affinity ratio [1, 14]: 13% | α, estimated cooperativity term [1, 15]: 0.25 | Kb [1, 16]: 9.6e-06 M | L-glutamate CRC HillSlope ([1]; with test item 49 nM): 1.0 | L-glutamate CRC LogEC50 ([1]; with test item 49 nM): −6.6 | L-glutamate CRC HillSlope ([1]; with test item 195 nM): 1.2 | L-glutamate CRC LogEC50 ([1]; with test item 195 nM): −6.6 | L-glutamate CRC HillSlope ([1]; with test item 781 nM): 1.3 | L-glutamate CRC LogEC50 ([1]; with test item 781 nM): −6.4 | L-glutamate CRC HillSlope ([1]; with test item 3.1 μM): 1.3 | L-glutamate CRC LogEC50 ([1]; with test item 3.1 μM): −6.5 | L-glutamate CRC HillSlope ([1]; with test item 12.5 μM): 1.1 | L-glutamate CRC LogEC50 ([1]; with test item 12.5 μM): −6.4 | L-glutamate CRC HillSlope ([1]; with test item 50 μM): 1.3 | L-glutamate CRC LogEC50 ([1]; with test item 50 μM): −6.2 | profile on L-glutamate CRC [2]: insurmountable profile | Kb ([3]; KB Table, absence of extracellular Mg2+, read-out: KB): 6.7 µM | % affinity ratio [3, 14]: 18% | α, estimated cooperativity term [3, 15]: 0.34 | L-glutamate CRC HillSlope ([3]; with test item 49 nM): 1.7 | L-glutamate CRC LogEC50 ([3]; with test item 49 nM): −7.5 | L-glutamate CRC HillSlope ([3]; with test item 195 nM): 1.4 | L-glutamate CRC LogEC50 ([3]; with test item 195 nM): −7.5 | L-glutamate CRC HillSlope ([3]; with test item 781 nM): 1.7 | L-glutamate CRC LogEC50 ([3]; with test item 781 nM): −7.4 | L-glutamate CRC HillSlope ([3]; with test item 3.1 μM): 1.9 | L-glutamate CRC LogEC50 ([3]; with test item 3.1 μM): −7.3 | L-glutamate CRC HillSlope ([3]; with test item 12.5 μM): 1.7 | L-glutamate CRC LogEC50 ([3]; with test item 12.5 μM): −7.1 | L-glutamate CRC HillSlope ([3]; with test item 50 μM): 1.9 | L-glutamate CRC LogEC50 ([3]; with test item 50 μM): −6.8 | % affinity ratio [4, 14]: 63% | α, estimated cooperativity term [4, 15]: 0.13 | Kb [4, 16]: 1.9e-06 M | L-glutamate CRC HillSlope ([4]; with test item 49 nM): 1.2 | L-glutamate CRC LogEC50 ([4]; with test item 49 nM): −6.7 | L-glutamate CRC HillSlope ([4]; with test item 195 nM): 1.1 | L-glutamate CRC LogEC50 ([4]; with test item 195 nM): −6.7 | L-glutamate CRC HillSlope ([4]; with test item 781 nM): 1.3 | L-glutamate CRC LogEC50 ([4]; with test item 781 nM): −6.6 | L-glutamate CRC HillSlope ([4]; with test item 3.1 μM): 1.3 | L-glutamate CRC LogEC50 ([4]; with test item 3.1 μM): −6.7 | L-glutamate CRC HillSlope ([4]; with test item 12.5 μM): 1.2 | L-glutamate CRC LogEC50 ([4]; with test item 12.5 μM): −6.7 | L-glutamate CRC HillSlope ([4]; with test item 50 μM): 0.83 | L-glutamate CRC LogEC50 ([4]; with test item 50 μM): −6.2 | % affinity ratio [5, 14]: 100% | α, estimated cooperativity term [5, 15]: 0.24 | Kb [5, 16]: 1.2e-06 M | L-glutamate CRC HillSlope ([5]; with test item 49 nM): 1.3 | L-glutamate CRC LogEC50 ([5]; with test item 49 nM): −7.0 | L-glutamate CRC HillSlope ([5]; with test item 195 nM): 1.4 | L-glutamate CRC LogEC50 ([5]; with test item 195 nM): −6.8 | L-glutamate CRC HillSlope ([5]; with test item 781 nM): 1.6 | L-glutamate CRC LogEC50 ([5]; with test item 781 nM): −6.8 | L-glutamate CRC HillSlope ([5]; with test item 3.1 μM): 1.6 | L-glutamate CRC LogEC50 ([5]; with test item 3.1 μM): −6.7 | L-glutamate CRC HillSlope ([5]; with test item 12.5 μM): 1.5 | L-glutamate CRC LogEC50 ([5]; with test item 12.5 μM): −6.7 | L-glutamate CRC HillSlope ([5]; with test item 50 μM): 3.0 | L-glutamate CRC LogEC50 ([5]; with test item 50 μM): −6.8

Gentamicin sulfate
calcium entry induced by 0.04 μM L-glutamate [6]: significantly increased | calcium entry induced by 0.2 μM L-glutamate [6]: significantly increased | calcium entry induced by 10 μM L-glutamate [6]: significantly decreased | calcium entry induced by 0.04 μM L-glutamate [7]: significantly increased | calcium entry induced by 0.2 μM L-glutamate [7]: decreased calcium entry | calcium entry induced by 10 μM L-glutamate [7]: did not modify | EC50 ([8]; 10 μM glycine): >100 µg/mL | calcium response (mean±SEM) ([8]; 1000 μM QA + 10 μg/ml GENT, 10 μM glycine, GluN2B, n=42): 37 ± 1.4 | Minimal response (%) [8, 17]: −3.7% | pEC50 [8, 18]: <4 | Response at max conc (%) [8, 19]: 0.7% | EC50 ([9]; 10 μM glycine): >100 µg/mL | calcium response (mean±SEM) ([9]; 1000 μM QA + 10 μg/ml GENT, 10 μM glycine, GluN2D, n=42): 53 ± 1.7 | Minimal response (%) [9, 17]: −3.2% | pEC50 [9, 18]: <4 | Response at max conc (%) [9, 19]: 1.0% | calcium entry induced by 0.04 μM L-glutamate [10]: significantly increased | calcium entry induced by 0.2 μM L-glutamate [10]: significantly increased | calcium entry induced by 10 μM L-glutamate [10]: did not modify | calcium entry induced by 0.04 μM L-glutamate [11]: significantly increased | calcium entry induced by 10 μM L-glutamate [11]: significantly decreased | EC50 ([12]; 10 μM glycine): >100 µg/mL | calcium response (mean±SEM) ([12]; 1000 μM QA + 10 μg/ml GENT, 10 μM glycine, GluN2C, n=42): 5.6 ± 0.4 | Minimal response (%) [12, 17]: −8.2% | pEC50 [12, 18]: <4 | Response at max conc (%) [12, 19]: 0.03% | EC50 ([13]; 10 μM glycine): >100 µg/mL | % effect on calcium entry, 1000 μM quinolinic acid plus gentamicin ([13]; 10 μg/ml gentamicin, 10 μM glycine): 47±1.1% | calcium response (mean±SEM) ([13]; 1000 μM QA + 10 μg/ml GENT, 10 μM glycine, GluN2A, n=42): 47 ± 1.1 | Minimal response (%) [13, 17]: −3.3% | pEC50 [13, 18]: <4 | Response at max conc (%) [13, 19]: 0.1%
